# Read-outs that look alike come from different tables or passages of the source.
# Assays:
# HRV1A [1] = assay: Full cycle infectivity assay (virus titer, TCID50); type: cell-based, human rhinovirus; conditions: full cycle assays; BafA1 (0.5 nM), alone or drug combination
# v-ATPase = v-ATPase (Bos taurus, UniProt P23956); assay: v-ATPase inhibition assay (Pi production in clathrin-coated vesicles); conditions: bovine brain clathrin-coated vesicles
# Experimental: Cow brain CCV were prepared as described [59], diluted in assay buffer (200 mM sucrose, 50 mM KCl, 10 mM HEPES pH7, 1 mM EDTA, 5 µM nigericin, 10 µg/ml oligomycin, 1 mM vanadate) and incubated with the respective compounds at 4°C for 30 min. ATP (10 µl 2 mM ATP and 40 mM MgCl2) were added and the samples incubated at 37°C for 15 min. Production of inorganic phosphate (Pi) was measured with the Sensolyte MG phosphate assay kit according to the manufacturers protocols (AnaSpec).
# [2] = test system: clathrin-coated vesicles (CCV); assay: Acridine orange measurements in clathrin-coated vesicles; conditions: AO red fluorescence assay
# Experimental: CCV suspended in assay buffer (10 mM HEPES, pH7, 100 mM KCl, 1 mM EDTA) were incubated with 1 mM ATP, 2 µM AO (Molecular Probes). The ATPase reaction was initiated by adding MgCl2 to 1 mM and fluorescence was determined at 492/540 nm in a plate reader (Tecan, Männedorf, Switzerland) at room temperature after 10 min. BafA1 and samples without MgCl2 were used as controls.
# [3] = nitazoxanide; cited from earlier work
# HRV14 [4] = conditions: n=2
# HRV2 [5] = conditions: n=2
# CVB3 = conditions: n=2
# HRV1A [6] = assay: microbe, parasite or virus in culture; conditions: Human rhinovirus sp.; for IC50: HeLa, read-out: IC50 (HRV1A); for activity at 0.03 µM / activity at 0.1 µM / activity at 0.31 µM / activity at 0.93 µM / activity at 2.78 µM / activity at 8.33 µM / activity at 25 µM: M-HeLa, 7 h; for activity at 0.03 µM: read-out: HRV1A infection (dsRNA), 0.03 µM; for activity at 0.1 µM: read-out: HRV1A infection (dsRNA), 0.10 µM; for activity at 0.31 µM: read-out: HRV1A infection (dsRNA), 0.31 µM; for activity at 0.93 µM: read-out: HRV1A infection (dsRNA), 0.93 µM; for activity at 2.78 µM: read-out: HRV1A infection (dsRNA), 2.78 µM; for activity at 8.33 µM: read-out: HRV1A infection (dsRNA), 8.33 µM; for activity at 25 µM: read-out: HRV1A infection (dsRNA), 25.00 µM
# CVA21 [7] = assay: microbe, parasite or virus in culture; conditions: Coxsackievirus, CVA21, HeLa, read-out: IC50 (CVA21)
# CVB4 [8] = assay: microbe, parasite or virus in culture; conditions: Enterovirus B, CVB4, HeLa, read-out: IC50 (CVB4)
# HRV1A [9] = conditions: n=2
# HRV14 [10] = assay: microbe, parasite or virus in culture; conditions: Human rhinovirus sp., HRV14, HeLa, read-out: IC50 (HRV14)
# CVB4 [11] = conditions: n=2
# [12] = test system: influenza virus (strain A/Puerto Rico/8/34/H1N1 depicted PR8); assay: microbe, parasite or virus in culture; conditions: unidentified influenza virus, A549, read-out: IC50 (PR8)
# HRV2 [13] = assay: microbe, parasite or virus in culture; conditions: Human rhinovirus sp., HRV2, HeLa, read-out: IC50 (HRV2)
# CVA21 [14] = conditions: n=2
# HRV16 [15] = assay: microbe, parasite or virus in culture; conditions: Human rhinovirus sp., HRV16, HeLa, read-out: IC50 (HRV16)
# HRV16 [16] = conditions: n=2
# hepatitis C virus = conditions: cited from earlier work
smiles,measurement,setting,value
"CO/C1=C\C(C)=C\[C@@H](C)[C@@H](O)[C@@H](C)C/C(C)=C/C=C/[C@H](OC)[C@@H]([C@@H](C)[C@@H](O)[C@H](C)[C@@]2(O)C[C@@H](O)[C@H](C)[C@@H](C(C)C)O2)OC1=O [BafA1, bafilomycin A1]",decrease of virus titers,HRV1A [1],about five-fold
same,"v-ATPase activity (ATP hydrolysis, production of Pi)",v-ATPase,completely blocked the production of Pi
same,pH of isolated CCV,[2],neutralized the pH of CCV in a dose-dependent manner
"CC(=O)Oc1ccccc1C(=O)Nc1ncc([N+](=O)[O-])s1 [Nitazoxanide, nitazoxanide]",pKa,[3],5.8
O=C(Nc1ccc([N+](=O)[O-])cc1Cl)c1cc(Cl)cc(Cl)c1O [TVB-1326],relative infection,HRV14 [4]; 0.1 µM,0.87
same,relative infection,HRV14 [4]; 0.3 µM,0.90
same,relative infection,HRV14 [4]; 0.9 µM,0.88
same,relative infection,HRV14 [4]; 2.8 µM,0.81
same,relative infection,HRV14 [4]; 8.3 µM,0.46
same,relative infection,HRV14 [4]; 25.0 µM,0.07
same,relative infection,HRV2 [5]; 0.1 µM,1.05
same,relative infection,HRV2 [5]; 0.3 µM,0.96
same,relative infection,HRV2 [5]; 0.9 µM,0.86
same,relative infection,HRV2 [5]; 2.8 µM,0.72
same,relative infection,HRV2 [5]; 8.3 µM,0.15
same,relative infection,HRV2 [5]; 25.0 µM,0.01
same,relative infection,CVB3; 0.1 µM,1.05
same,relative infection,CVB3; 0.3 µM,1.06
same,relative infection,CVB3; 0.9 µM,1.11
same,relative infection,CVB3; 2.8 µM,1.06
same,relative infection,CVB3; 8.3 µM,1.00
same,relative infection,CVB3; 25.0 µM,1.27
same,IC50,HRV1A [6],3.36 µM
same,activity at 0.03 µM,HRV1A [6],93%
same,activity at 0.1 µM,HRV1A [6],85%
same,activity at 0.31 µM,HRV1A [6],88%
same,activity at 0.93 µM,HRV1A [6],87%
same,activity at 2.78 µM,HRV1A [6],66%
same,activity at 8.33 µM,HRV1A [6],17%
same,activity at 25 µM,HRV1A [6],4%
same,IC50,CVA21 [7],~25.8 µM
same,IC50,CVB4 [8],15 µM
same,relative infection,HRV1A [9]; 0.1 µM,0.93
same,relative infection,HRV1A [9]; 0.3 µM,0.91
same,relative infection,HRV1A [9]; 0.9 µM,0.84
same,relative infection,HRV1A [9]; 2.8 µM,0.62
same,relative infection,HRV1A [9]; 8.3 µM,0.17
same,relative infection,HRV1A [9]; 25.0 µM,0.02
same,IC50,HRV14 [10],6.87 µM
same,relative infection,CVB4 [11]; 0.1 µM,1.13
same,relative infection,CVB4 [11]; 0.3 µM,1.22
same,relative infection,CVB4 [11]; 0.9 µM,1.20
same,relative infection,CVB4 [11]; 2.8 µM,1.06
same,relative infection,CVB4 [11]; 8.3 µM,0.71
same,relative infection,CVB4 [11]; 25.0 µM,0.29
same,IC50,[12],10.2 µM
same,IC50,HRV2 [13],3.98 µM
same,relative infection,CVA21 [14]; 0.1 µM,0.87
same,relative infection,CVA21 [14]; 0.3 µM,0.98
same,relative infection,CVA21 [14]; 0.9 µM,1.00
same,relative infection,CVA21 [14]; 2.8 µM,0.99
same,relative infection,CVA21 [14]; 8.3 µM,1.10
same,relative infection,CVA21 [14]; 25.0 µM,0.59
same,IC50,HRV16 [15],11.1 µM
same,relative infection,HRV16 [16]; 0.1 µM,0.99
same,relative infection,HRV16 [16]; 0.3 µM,1.00
same,relative infection,HRV16 [16]; 0.9 µM,0.96
same,relative infection,HRV16 [16]; 2.8 µM,0.96
same,relative infection,HRV16 [16]; 8.3 µM,0.68
same,relative infection,HRV16 [16]; 25.0 µM,0.10
O=C(Nc1ccc([N+](=O)[O-])cc1Cl)c1ccccc1O [TVB-1332],relative infection,"HRV14 [4]; HRV14, 0.1 µM, normalized to DMSO control (1), Figure S7A",0.91
same,relative infection,"HRV14 [4]; HRV14, 0.3 µM, normalized to DMSO control (1), Figure S7A",0.96
same,relative infection,"HRV14 [4]; HRV14, 0.9 µM, normalized to DMSO control (1), Figure S7A",0.82
same,relative infection,"HRV14 [4]; HRV14, 2.8 µM, normalized to DMSO control (1), Figure S7A",0.47
same,relative infection,"HRV14 [4]; HRV14, 8.3 µM, normalized to DMSO control (1), Figure S7A",0.09
same,relative infection,"HRV14 [4]; HRV14, 25.0 µM, normalized to DMSO control (1), Figure S7A",0.05
same,relative infection,"HRV2 [5]; HRV2, 0.1 µM, normalized to DMSO control (1), Figure S7A",0.94
same,relative infection,"HRV2 [5]; HRV2, 0.3 µM, normalized to DMSO control (1), Figure S7A",0.97
same,relative infection,"HRV2 [5]; HRV2, 0.9 µM, normalized to DMSO control (1), Figure S7A",0.95
same,relative infection,"HRV2 [5]; HRV2, 2.8 µM, normalized to DMSO control (1), Figure S7A",0.38
same,relative infection,"HRV2 [5]; HRV2, 8.3 µM, normalized to DMSO control (1), Figure S7A",0.01
same,relative infection,"HRV2 [5]; HRV2, 25.0 µM, normalized to DMSO control (1), Figure S7A",0.01
same,relative infection,CVB3; 0.1 µM,1.01
same,relative infection,CVB3; 2.8 µM,1.08
same,relative infection,"CVB3; CVB3, 0.3 µM, normalized to DMSO control (1), Figure S7A",1.11
same,relative infection,"CVB3; CVB3, 0.9 µM, normalized to DMSO control (1), Figure S7A",1.07
same,relative infection,"CVB3; CVB3, 8.3 µM, normalized to DMSO control (1), Figure S7A",1.05
same,relative infection,"CVB3; CVB3, 25.0 µM, normalized to DMSO control (1), Figure S7A",1.15
same,IC50,HRV1A [6],3.19 µM
same,activity at 0.03 µM,HRV1A [6],108%
same,activity at 0.1 µM,HRV1A [6],98%
same,activity at 0.31 µM,HRV1A [6],96%
same,activity at 0.93 µM,HRV1A [6],88%
same,activity at 2.78 µM,HRV1A [6],44%
same,activity at 8.33 µM,HRV1A [6],5%
same,activity at 25 µM,HRV1A [6],4%
same,IC50,CVA21 [7],14.7 µM
same,IC50,CVB4 [8],8.01 µM
same,relative infection,HRV1A [9]; 0.1 µM,0.99
same,relative infection,HRV1A [9]; 0.3 µM,1.01
same,relative infection,HRV1A [9]; 0.9 µM,0.97
same,relative infection,HRV1A [9]; 2.8 µM,0.61
same,relative infection,HRV1A [9]; 8.3 µM,0.04
same,relative infection,HRV1A [9]; 25.0 µM,0.02
same,IC50,HRV14 [10],2.47 µM
same,relative infection,"CVB4 [11]; CVB4, 0.1 µM, normalized to DMSO control (1), Figure S7A",1.10
same,relative infection,"CVB4 [11]; CVB4, 0.3 µM, normalized to DMSO control (1), Figure S7A",1.16
same,relative infection,"CVB4 [11]; CVB4, 0.9 µM, normalized to DMSO control (1), Figure S7A",1.25
same,relative infection,"CVB4 [11]; CVB4, 2.8 µM, normalized to DMSO control (1), Figure S7A",0.86
same,relative infection,"CVB4 [11]; CVB4, 8.3 µM, normalized to DMSO control (1), Figure S7A",0.34
same,relative infection,"CVB4 [11]; CVB4, 25.0 µM, normalized to DMSO control (1), Figure S7A",0.33
same,IC50,[12],~2.7 µM
same,IC50,HRV2 [13],2.36 µM
same,relative infection,"CVA21 [14]; CVA21, 0.1 µM, normalized to DMSO control (1), Figure S7A",0.91
same,relative infection,"CVA21 [14]; CVA21, 0.3 µM, normalized to DMSO control (1), Figure S7A",0.95
same,relative infection,"CVA21 [14]; CVA21, 0.9 µM, normalized to DMSO control (1), Figure S7A",0.93
same,relative infection,"CVA21 [14]; CVA21, 2.8 µM, normalized to DMSO control (1), Figure S7A",1.02
same,relative infection,"CVA21 [14]; CVA21, 8.3 µM, normalized to DMSO control (1), Figure S7A",0.81
same,relative infection,"CVA21 [14]; CVA21, 25.0 µM, normalized to DMSO control (1), Figure S7A",0.20
same,IC50,HRV16 [15],3.74 µM
same,relative infection,"HRV16 [16]; HRV16, 0.1 µM, normalized to DMSO control (1), Figure S7A",0.98
same,relative infection,"HRV16 [16]; HRV16, 0.3 µM, normalized to DMSO control (1), Figure S7A",0.95
same,relative infection,"HRV16 [16]; HRV16, 0.9 µM, normalized to DMSO control (1), Figure S7A",0.94
same,relative infection,"HRV16 [16]; HRV16, 2.8 µM, normalized to DMSO control (1), Figure S7A",0.66
same,relative infection,"HRV16 [16]; HRV16, 8.3 µM, normalized to DMSO control (1), Figure S7A",0.14
same,relative infection,"HRV16 [16]; HRV16, 25.0 µM, normalized to DMSO control (1), Figure S7A",0.07
CCN(CC)CCCC(C)Nc1ccnc2cc(Cl)ccc12 (centres unmarked) [chloroquine],IC90,hepatitis C virus,20 µM
C/C=C/[C@H]1O[C@@](O)([C@@H](C)[C@H](O)[C@H](C)[C@H]2OC(=O)/C(OC)=C/C(C)=C/[C@@H](C)[C@@H](O)[C@@H](CC)[C@@H](O)[C@H](C)C/C(C)=C/C=C/[C@@H]2OC)C[C@@H](O[C@H]2C[C@@H](O)[C@H](OC(N)=O)[C@@H](C)O2)[C@@H]1C [concanamycin A],"v-ATPase activity (ATP hydrolysis, production of Pi)",v-ATPase,completely blocked the production of Pi
same,pH of isolated CCV,[2],neutralized the pH of CCV in a dose-dependent manner
